The source made the active and inactive calls. The rule behind the calls is not given here. Peptide text beside a SMILES is read from it.
target: T1, C-C motif chemokine 5/Neutrophil defensin 1 (Defensin, alpha 1) (Homo sapiens) (UniProt P13501+P59665); assay: Inhibition of CCL5 (unknown origin)-HNP1 (unknown origin) interaction in HUVEC assessed as reduction in CCL5-HNP1-driven human monocyte adhesion at 100 ug/ml pre-incubated for 5 mins before human monocyte addition; format: cell-based
T1 sequence (P13501 whole entry, looked up): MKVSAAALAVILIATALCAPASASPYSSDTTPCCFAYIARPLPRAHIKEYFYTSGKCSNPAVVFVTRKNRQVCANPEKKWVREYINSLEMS
T1 sequence (P59665 whole entry, looked up): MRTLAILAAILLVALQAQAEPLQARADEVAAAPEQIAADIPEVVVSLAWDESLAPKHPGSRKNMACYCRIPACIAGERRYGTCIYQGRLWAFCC

Compound	inhibition
H-YQGRLWAFSS-OH	Active
CC(C)C[C@@H]1NC(=O)[C@H](CCCNC(=N)N)NC(=O)CNC(=O)[C@H](CCC(N)=O)NC(=O)[C@H](Cc2ccc(O)cc2)NC(=O)[C@H](CCCCN)NC(=O)[C@H](C)NC(=O)[C@H]([C@@H](C)O)NC(=O)CNC(=O)[C@H](Cc2ccc(O)cc2)NC(=O)[C@H](CCCNC(=N)N)NC(=O)[C@H](CCCNC(=N)N)NC(=O)[C@@H](N)CSSC[C@@H](C(N)=O)NC(=O)[C@H](C)NC(=O)[C@H](Cc2ccccc2)NC(=O)[C@H](C)NC(=O)[C@H](Cc2c[nH]c3ccccc23)NC1=O (HELM PEPTIDE1{C.R.R.Y.G.T.A.K.Y.Q.G.R.L.W.A.F.A.C.[am]}$PEPTIDE1,PEPTIDE1,1:R3-18:R3$$$V2.0)	Active
H-RRYGTSRYQ-OH	Active
H-TYQRRSGKY-OH	inactive
H-RRYGTSIYQ-OH	Active
H-RRYGTSKYQ-OH	Active

target: T1, C-C motif chemokine 5/Neutrophil defensin 1 (Defensin, alpha 1) (Homo sapiens); assay: Inhibition of CCL5 (unknown origin)-HNP1 (unknown origin) interaction in HUVEC assessed as CCL5-HNP1-driven human monocyte adhesion at 100 ug/ml pre-incubated for 5 mins before human monocyte addition; format: cell-based; set-up: scale not given: the % may be the effect or the level left

Compound	Activity [%]
H-RRYGTSKYQ-OH	11.8
